The values that follow come from doi:10.1101/2021.07.15.452591v1 (biorxiv, 2021).

In the assay the target is T1, AmnC (2-aminomuconic 6-semialdehyde dehydrogenase) (Pseudomonas sp., UniProt Q9KWS5, DEL124-138/DEL477-491).
T1 sequence (Q9KWS5 1-476 DEL124-138): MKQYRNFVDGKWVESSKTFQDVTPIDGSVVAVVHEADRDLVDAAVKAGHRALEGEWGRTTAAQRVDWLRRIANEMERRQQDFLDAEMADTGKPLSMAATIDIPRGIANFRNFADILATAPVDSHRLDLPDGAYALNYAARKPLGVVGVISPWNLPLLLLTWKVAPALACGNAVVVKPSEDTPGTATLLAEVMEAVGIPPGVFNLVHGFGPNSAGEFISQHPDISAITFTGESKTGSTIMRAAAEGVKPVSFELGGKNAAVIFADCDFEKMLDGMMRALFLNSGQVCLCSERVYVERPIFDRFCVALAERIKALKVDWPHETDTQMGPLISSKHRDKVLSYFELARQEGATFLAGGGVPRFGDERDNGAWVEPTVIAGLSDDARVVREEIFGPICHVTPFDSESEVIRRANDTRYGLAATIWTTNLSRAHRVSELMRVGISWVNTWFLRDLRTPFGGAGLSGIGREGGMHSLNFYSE
As to the kind of experiment: microscale thermophoresis. In kind it is binding. On the technique in general: Microscale thermophoresis detects binding through changes in fluorescence in a small temperature gradient.

Turning to `NC(=O)c1ccc[n+]([C@@H]2O[C@H](COP(=O)(O)OP(=O)(O)OC[C@H]3O[C@@H](n4cnc5c(N)ncnc54)[C@H](O)[C@@H]3O)[C@@H](O)[C@H]2O)c1` [NAD^+], binding was characterised by a dissociation constant (Kd) of 3 ± 0.3 mM.

The term Kd denotes the constant that tells how readily two partners part at equilibrium. Higher therefore signals lower affinity.
